The source of these data is patent US20100273696A1, “Composition and method for the prevention and removal of unwanted paint on a surface” (priority 2009, published 2010).

A short description of data set [1]: Solubility in water of possible ingredients. It counts as physicochemical.
Data set [2] in a line: Toxicity (hazard class) of possible ingredients. As to conditions: hazard symbol or 'none'.

As for `CN1CCCC1=O` [N-methyl-2-pyrrolidinone], the “Solubility in H2O” value in data set [1] (result in words) is “complete”.
As for `CCCCOC(C)COC(C)COC(C)CO` (centres unmarked) [tripropylene glycol monobutyl ether], in data set [2], the Toxicity entry was “none”.
Consider `CCOCCOCCOCC` [diethylene glycol diethyl ether], for which the “Solubility in H2O” value in data set [1] (result in words) is recorded as “complete”. Besides, in data set [2], the Toxicity entry was “none”.
As to `CCOC(=O)CC(CC(C)=O)C(=O)OCC` (centres unmarked) [diethyl acetonyl succinate], the Toxicity result in data set [2] is on record as “none”.
Take `CCCCOCCOCCOCCCC` [diethylene glycol dibutyl ether]: in data set [1] (given as percent), the “Solubility in H2O” value amounted to 0.3%.
The same measure, in the same setting: as for `CCCCOCCOCCO` [diethylene glycol monobutyl ether], the figure is 10%.
In the case of `COC(C)COC(C)CO` (centres unmarked) [dipropylene glycol monomethyl ether], in data set [1] (result in words), the “Solubility in H2O” value is “complete”. In data set [2], the Toxicity entry is given as “none”.
Take `C[S+](C)[O-]` [dimethyl sulfoxide]: the “Solubility in H2O” value in data set [1] (result in words) is reported as “complete”. The Toxicity entry in data set [2] is “none”.
Turning to `O=C1CCCO1` [γ-butyrolactone], the “Solubility in H2O” value in data set [1] (result in words) is given as “complete”.
Consider `COCCOCCOCCO` [triethylene glycol monomethyl ether], for which, in data set [2], the Toxicity result is listed as “none”.
In the case of `CCCOC(C)COC(C)CO` (centres unmarked) [dipropylene glycol monopropyl ether], in data set [1] (result in words), the “Solubility in H2O” value was “complete”. The Toxicity entry in data set [2] is listed as “none”.
Regarding `COC(C)COC(C)COC(C)CO` (centres unmarked) [tripropylene glycol monomethyl ether], the “Solubility in H2O” value in data set [1] (result in words) is “complete”. Moreover, in data set [2], the Toxicity entry is listed as “none”.
The corresponding values for `CCCOCCOCCO` [diethylene glycol monopropyl ether] are “complete” and “none”.
The corresponding values for `COCCOCCOCCOCCOC` [tetraethylene glycol dimethyl ether] are “complete” and “none”.
In the case of oleyl ethercarboxylic acid (9 EO), in data set [1] (result in words), the “Solubility in H2O” value is listed as “complete”. The Toxicity entry in data set [2] was “none”.
The corresponding values for `CCOCCOCCO` [diethylene glycol monoethyl ether] are “complete” and “none”.
For the compound `COCCOCCOC` [diethylene glycol dimethyl ether], the “Solubility in H2O” value in data set [1] (result in words) is recorded as “complete”.
Consider lauryl ethercarboxylic acid (10 EO), for which, in data set [1] (result in words), the “Solubility in H2O” value is “complete”. Further, the Toxicity result in data set [2] is on record as “none”.
The matching figures for `COCC(C)OCC(C)OC` (centres unmarked) [dipropylene glycol dimethyl ether]: “complete” and “none”.
Turning to `O=C1OCCO1` [ethylene carbonate], the Toxicity result in data set [2] is reported as “none”.
For the compound octyl ethercarboxylic acid (8 EO), the “Solubility in H2O” value in data set [1] (result in words) is “complete”. Also, the Toxicity result in data set [2] was “none”.
In the case of `CCCCOCCOCCOC(C)=O` [[2-(2-butoxyethoxy)-ethyl]-acetate], in data set [1] (given as percent), the “Solubility in H2O” value amounted to 6.5%. Also, the Toxicity result in data set [2] is “none”.
As for `CC1COC(=O)O1` (centres unmarked) [propylene carbonate], the “Solubility in H2O” value in data set [1] (given as percent) is 24%.
For the compound `CCOC(C)COC(C)CO` (centres unmarked) [dipropylene glycol monoethyl ether], in data set [1] (result in words), the “Solubility in H2O” value is given as “complete”. The Toxicity result in data set [2] is given as “none”.
In the case of `COCCOCCOCCOC` [triethylene glycol dimethyl ether], the “Solubility in H2O” value in data set [1] (result in words) is “complete”. Further, in data set [2], the Toxicity entry is “none”.
Turning to `COC(=O)CCC(=O)OC` [dimethyl succinate], the “Solubility in H2O” value in data set [1] (given as percent) worked out at 7.5%.
On to `COCCOCCOCCOCCO` [tetraethylene glycol monomethyl ether], for which the “Solubility in H2O” value in data set [1] (result in words) is reported as “complete”. The Toxicity entry in data set [2] is recorded as “none”.
For `CCCOCCOCCOCCC` [diethylene glycol dipropyl ether], the “Solubility in H2O” value in data set [1] (result in words) is listed as “complete”. In data set [2], the Toxicity result is listed as “none”.
For `COCCOCCO` [diethylene glycol monomethyl ether], the “Solubility in H2O” value in data set [1] (result in words) is on record as “complete”.
On to PEG-8 Oleate, for which the Toxicity entry in data set [2] is “none”.
